Data published in patent US20250144053A1, “A MIXTURE OF UREA, BIURET AND NITRATE AS A DIETARY NON-PROTEIN NITROGEN-SOURCE FOR RUMINANTS AND USES THEREOF” (Yara International ASA, priority 2022, published 2025).

Key:
[1] = test system: ruminal fluid (rumen microbes); experiment: In vitro methane production in batch culture (Example 1); format: cell-based, Angus crossbred steers; settings: corn silage-based diet
Procedure: The in vitro incubations were conducted on three separate days (replicates). A representative sample of digesta was collected from different places in the rumen of ruminally cannulated steers and strained through 4 layers of cheesecloth, placed in pre-warmed thermos containers, and transported to the laboratory within 30 minutes after the collection. In the laboratory, the ruminal fluid from the two steers was maintained under constant CO2-flux and was combined in equal proportions. This combined ruminal fluid was mixed with McDougall's buffer (McDougall, 1948) with and without 0.077 g/liter of 10 wt. % ammonium sulfate enriched with ^15N in relation 1:4, and it was used as an inoculum. […] At the end of the 24 hours incubation, the final pH was recorded, the bottles were placed on ice to prevent further microbial fermentation and two 10-ml samples were collected and acidified by adding 20 μl of a 20 vol/vol % of H2SO4-solution and were frozen at minus 20° C. until further analysis. […]
The amount of methane produced was determined by measuring total gas production and the contribution of methane to it. The production of gas was recorded using an Ankom Gas Monitoring System from Ankom Technologies. […] A gas subsample was analyzed to measure methane concentration and calculate the total methane production during the fermentation. […]

[2] = test system: crossbred yearling steers; experiment: Animal growth performance with NPN supplementation (Example 2); format: in vivo
Text: A total of 72 crossbred yearling steers [303 kg±29 kg initial body weight (BW) were stratified by body weight (BW) and randomly allocated to three treatments. All steers consumed a basal diet of corn silage, cotton-gin trash, and a premix of vitamins and minerals.
The steers were housed in pens (8 steers/pen, 3 pens/treatment). The steers were supplemented with three different NPN-sources on an isonitrogenous basis, considering as reference the N provided by urea when included at 1 wt. % of the diet in dry matter (DM-basis.
In Table 5, the composition of the basal diet supplemented with three different types of NPN, i.e. urea (Urea) (46% N, Yara International), a mixture of urea and biuret (UB) (41% N) and a mixture of urea, biuret and nitrate according to the present disclosure (“UBN”) (35% N, 21.3% NO3) is shown.
From day −17 to day −16 relative to the beginning of the experimental period, the steers received 20% of their total supplemental NPN.
From day −15 to day −12 relative to the beginning of the experimental period, the steers received 40% of their total supplemental NPN.
From day −11 to day −8 relative to the beginning of the experimental period, the steers received 60% of their total supplemental NPN.
From day −7 to day −3 relative to the beginning of the experimental period, the steers received 80% of their total supplemental NPN.
From day −2 to the beginning of the experimental period (day 0), the steers received 100% of their total supplemental NPN.
The gain to feed ratio (G: F) was computed as the ratio of the average daily gain (ADG) to daily dry matter intake (DMI). The feed intake was recorded daily. The individual intake was determined via the GrowSafe® intake monitoring system. In cattle management, GrowSafe Systems is a commonly used tool to closely monitor individual animal feeding data using radio frequency identification (RFID) tag technology. The animals are equipped with a unique RFID tag that is read by the feed bunks each time the animal lowers its head into the bunk to consume feed. Average daily weight gain (ADG) and feed efficiency were calculated during the performance evaluation. The ADG was determined by the difference between the final BW and the initial BW divided by the number of days of the performance evaluation (56 days). The initial BW was calculated as the average unshrunk BW of heifers on days 16 and 17. The final BW was the average unshrunk BW measured on days 72 and 73. The unshrunk BW was obtained every 14 days.
In Table 6, the effect of NPN supplementation with Urea, UB and UBN on growth performance is shown. More in particular, the initial and the final BW and the ADG, all expressed in kg, the dry matter intake (DMI) expressed in kg/day and in percentage of BW, the gain to feed ratio (G:F) expressed in kg/kg, the net energy of gain (NEg) expressed in Mcal/kg of DM and the plasma urea nitrogen (PUN) expressed in […] are shown.

NC(N)=O [Urea, urea]
Methane production, mM/g OMd ([1]; per g organic matter digested): 6.86 mM/g OMd | Methane production, mM/g OMi ([1]; per g organic matter incubated): 1.23 mM/g OMi | ADG ([2]; days 0-14): 0.78 kg | G:F ([2]; days 0-14): 0.10 kg/kg | ADG ([2]; days 0-28): 0.81 kg | G:F ([2]; days 0-28): 0.11 kg/kg | G:F ([2]; days 0-42): 0.14 kg/kg | G:F ([2]; days 0-56): 0.14 kg/kg | NEg ([2]; net energy of gain): 0.55 Mcal/kg of DM
